From patent US7879997B2, “Compounds for the treatment of inflammatory disorders” (Schering Corporation, priority 2005, dated 2011)
pKi: −log10 of the molar value.

Molecular target: T1, purified catalytic domain of recombinant human TACE (rhTACEc) (Homo sapiens, UniProt P78536, N452Q/S266A)
T1 construct: rhTACEc, Residue 215 to 477 with two mutation (S266A and N452Q) and a 6× His tail; 6xHis (C); made in house; host or cells: baculovirus/Hi5 insect cells
Assay: TACE kinetic assay, cleavage of internally quenched peptide substrate SPDL-3
Format: biochemical
Protocol: TACE activity is determined by a kinetic assay measuring the rate of increase in fluorescent intensity generated by TACE catalyzed cleavage of an internally quenched peptide substrate (SPDL-3). The purified catalytic domain of recombinant human TACE (rhTACEc, Residue 215 to 477 with two mutation (S266A and N452Q) and a 6× His tail) is used in the assay. It is purified from the baculovirus/Hi5 cells expression system using affinity chromatography. The substrate SPDL-3 is an internally quenched peptide (MCA-Pro-Leu-Ala-Gln-Ala-Val-Arg-Ser-Ser-Ser-Dpa-Arg-NH2), with its sequence derived from the pro-TNFα cleavage site. MCA is (7-Methoxycoumarin-4-yl)acetyl. Dpa is N-3-(2,4-Dinitrophenyl)-L-2,3-diaminopropionyl.
A 50 μl assay mixture contains 20 mM HEPES, pH 7.3, 5 mM CaCl2, 100 μM ZnCl2, 2% DMSO, 0.04% Methylcellulose, 30 μM SPDL-3, 70 pM rhTACEc and a test compound. RhTACEc is pre-incubated with the testing compound for 90 min. at 25° C. Reaction is started by addition of the substrate. The fluorescent intensity (excitation at 320 nm, emission at 405 nm) was measured every 45 seconds for 30 min. using a fluorospectrometer (GEMINI XS, Molecular Devices). Rate of enzymatic reaction is shown as Units per second. Effect of a test compound is shown as % of TACE activity in the absence of the compound.

[1] = Specific TACE inhibitory activity (Ki values)
[2] = TACE inhibitory activity, class letters

T1 sequence (P78536 215-477 S266A/N452Q): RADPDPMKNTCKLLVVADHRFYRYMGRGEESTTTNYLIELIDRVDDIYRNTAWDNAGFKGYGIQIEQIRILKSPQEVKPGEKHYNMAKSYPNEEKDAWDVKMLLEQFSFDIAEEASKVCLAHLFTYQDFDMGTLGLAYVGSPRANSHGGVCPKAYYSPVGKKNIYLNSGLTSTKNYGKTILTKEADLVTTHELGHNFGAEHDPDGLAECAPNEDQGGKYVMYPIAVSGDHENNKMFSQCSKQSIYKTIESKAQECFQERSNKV

| Compound | pKi [1] | pKi [2] |
| --- | --- | --- |
| O=C(NO)[C@H]1NC(=O)[C@@H]1Cc1ccc(OCc2cc(-c3ccccc3)nc3ccccc23)cc1 [Compound C5] | 7.26 | 7.00 to 7.70 |
| COC(=O)C(Oc1ccc(C[C@H]2C(=O)N[C@@H]2C(=O)NO)cc1)c1cc(-c2ccccc2)nc2ccccc12 (stereo partly shown) [Compound E3] |  | 6.00 to 7.00 |
| CCOC(=O)[C@@]1(Cc2ccc(OCc3cc(-c4ccccc4)nc4ccccc34)cc2)CNC[C@@H]1C(=O)NO [Compound A12] | 7.23 | 7.00 to 7.70 |
| O=C1N[C@H](C(=O)NO)[C@@H]1Cc1ccc(OCc2cc(-c3ccccc3)nc3ccccc23)cc1 [Compound B8] | 7.93 | > 7.70 |
